Assay results: US10717716B2, “1,3,4-oxadiazole derivative compounds as histone deacetylase 6 inhibitor, and the pharmaceutical composition comprising the same” (Chong Kun Dang Pharmaceutical Corp., priority 2015, dated 2020)

Tests used:
human recombinant HDAC1 = biological target: T1, human recombinant HDAC1 (Homo sapiens, UniProt Q13547); assay: HDAC1 enzyme activity inhibition assay (HDAC Fluorimetric Drug Discovery Kit); format: biochemical; details: human recombinant HDAC1, Fluor de Lys substrate 10 μM, 30° C. 60 minutes
T1 construct: purchased Enzo Life Science BML-SE456
Experimental: In order to examine the HDAC6 selectivity of the compounds of formula I of the present invention by HDAC1 and HDAC6 enzymatic activity inhibition assays, an experiment was performed using a conventional substance as a control.
HDAC enzyme activity was measured using a HDAC Fluorimetric Drug Discovery Kit (BML-AK511, 516, Enzo Life Science). For the HDAC1 enzyme activity test, human recombinant HDAC1 (BML-SE456) was used as an enzyme source, and Fluor de Lys®-“SIRT1 (BNL-KI177) was used as a substrate. A 5-fold dilution of the compound was seeded into a 96-well plate, and then 0.3 μg of the enzyme and 10 μM of the substrate were added to each well of the plate and allowed to react at 30° C. for 60 minutes. Then, Fluor de Lys®-Developer II (BML-KI176) was added thereto and allowed to react for 30 minutes, after which the fluorescence value (Ex 360, Em 460) was measured using a multi-plate reader (Flexstation 3, Molecular Device). The HDAC6 enzyme was tested using human recombinant HDAC6 (382180) (Calbiochem) according to the same protocol as the HDAC1 enzyme activity test method. Based on the resulting values, each IC5, value was calculated using GraphPad Prism4.0 program.

human recombinant HDAC6 = biological target: T2, human recombinant HDAC6 (Homo sapiens, UniProt Q9UBN7); assay: HDAC6 enzyme activity inhibition assay (HDAC Fluorimetric Drug Discovery Kit); format: biochemical; details: for HDAC6 selectivity (fold): HDAC6 over HDAC1; for IC50: human recombinant HDAC6, same protocol as HDAC1, read-out: HDAC6
T2 construct: purchased Calbiochem 382180
T2 sequence (Q9UBN7 1-1215): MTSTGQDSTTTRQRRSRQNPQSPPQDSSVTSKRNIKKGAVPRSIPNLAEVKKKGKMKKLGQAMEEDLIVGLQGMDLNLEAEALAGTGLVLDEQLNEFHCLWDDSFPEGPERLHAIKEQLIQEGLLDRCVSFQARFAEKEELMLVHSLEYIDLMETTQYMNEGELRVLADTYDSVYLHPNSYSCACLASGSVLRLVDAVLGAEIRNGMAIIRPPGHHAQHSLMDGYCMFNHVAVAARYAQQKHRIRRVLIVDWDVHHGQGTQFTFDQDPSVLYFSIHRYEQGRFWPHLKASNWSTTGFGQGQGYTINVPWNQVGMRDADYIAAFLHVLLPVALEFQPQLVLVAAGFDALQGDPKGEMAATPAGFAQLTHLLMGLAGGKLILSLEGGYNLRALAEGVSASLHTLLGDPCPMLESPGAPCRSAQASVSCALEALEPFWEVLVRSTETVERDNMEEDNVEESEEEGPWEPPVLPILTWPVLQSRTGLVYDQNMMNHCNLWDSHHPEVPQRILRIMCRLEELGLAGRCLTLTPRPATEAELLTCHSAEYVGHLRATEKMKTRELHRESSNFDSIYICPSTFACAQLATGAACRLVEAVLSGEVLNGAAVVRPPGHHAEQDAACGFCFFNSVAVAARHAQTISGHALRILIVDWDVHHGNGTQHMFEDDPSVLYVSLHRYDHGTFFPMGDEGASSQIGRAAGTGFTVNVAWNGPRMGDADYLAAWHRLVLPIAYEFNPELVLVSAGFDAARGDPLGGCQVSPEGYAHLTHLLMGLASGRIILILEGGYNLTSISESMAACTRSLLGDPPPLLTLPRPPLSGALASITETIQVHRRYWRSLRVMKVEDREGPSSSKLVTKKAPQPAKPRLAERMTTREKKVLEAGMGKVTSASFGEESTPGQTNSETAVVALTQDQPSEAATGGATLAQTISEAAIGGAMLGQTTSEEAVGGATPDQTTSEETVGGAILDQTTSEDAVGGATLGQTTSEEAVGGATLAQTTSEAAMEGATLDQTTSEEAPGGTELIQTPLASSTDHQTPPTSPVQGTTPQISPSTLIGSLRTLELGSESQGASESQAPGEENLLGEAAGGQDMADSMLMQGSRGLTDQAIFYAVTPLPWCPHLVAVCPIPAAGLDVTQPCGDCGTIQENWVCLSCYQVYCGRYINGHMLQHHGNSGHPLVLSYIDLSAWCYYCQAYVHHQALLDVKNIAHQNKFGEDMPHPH
Method in brief: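 Fluorimetric deacetylase assay: 5-fold serial compound dilutions, 0.3 μg recombinant human enzyme (HDAC1 or HDAC6, same protocol), 10 μM Fluor de Lys-SIRT1 substrate, 60 min at 30 °C. Signal developed 30 min, measured at 360/460 nm; IC50 values derived.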

T1 sequence (Q13547 whole entry): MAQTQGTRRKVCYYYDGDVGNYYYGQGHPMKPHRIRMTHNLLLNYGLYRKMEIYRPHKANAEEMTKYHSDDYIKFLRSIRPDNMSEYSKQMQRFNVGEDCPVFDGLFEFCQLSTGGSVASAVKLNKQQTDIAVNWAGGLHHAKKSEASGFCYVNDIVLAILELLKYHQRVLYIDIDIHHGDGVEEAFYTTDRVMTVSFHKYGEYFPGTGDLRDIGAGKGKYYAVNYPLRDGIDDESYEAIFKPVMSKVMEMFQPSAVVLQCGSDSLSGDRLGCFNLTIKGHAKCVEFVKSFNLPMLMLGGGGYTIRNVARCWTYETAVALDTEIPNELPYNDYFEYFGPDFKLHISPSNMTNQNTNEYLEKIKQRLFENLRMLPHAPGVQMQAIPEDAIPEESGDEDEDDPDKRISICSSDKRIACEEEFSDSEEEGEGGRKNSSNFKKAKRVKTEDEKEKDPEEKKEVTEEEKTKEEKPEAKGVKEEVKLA

Structure (SMILES)	IC50 (human recombinant HDAC1) [µM]	HDAC6 selectivity (fold) (human recombinant HDAC6)	IC50 (human recombinant HDAC6) [µM]
Cn1ncc2ccc(-c3ccc(N(Cc4ccc(-c5nnc(C(F)(F)F)o5)cc4)C(=O)N4CCS(=O)(=O)CC4)cc3)cc21 [Compound 21487, N-(4-(1-methyl-1H-indazol-6-yl)phenyl)-N-(4-(5-(trifluoromethyl)-1,3,4-oxadiazol-2-yl)benzyl)thiomorpholine-4-carboxamide 1,1-dioxide]	1.95	6	0.344
O=C(N1CCS(=O)(=O)CC1)N(Cc1ccc(-c2nnc(C(F)(F)F)o2)cc1)c1ccc(-c2cccnc2)cc1 [Compound 21489, N-(4-(pyridin-3-yl)phenyl)-N-(4-(5-(trifluoromethyl)-1,3,4-oxadiazol-2-yl)benzyl)thiomorpholine-4-carboxamide 1,1-dioxide]	1.65	18	0.089
O=C(N1CCS(=O)(=O)CC1)N(Cc1ccc(-c2nnc(C(F)(F)F)o2)cc1)c1ccc(-c2ccoc2)cc1 [Compound 21491, N-(4-(furan-3-yl)phenyl)-N-(4-(5-(trifluoromethyl)-1,3,4-oxadiazol-2-yl)benzyl)thiomorpholine-4-carboxamide 1,1-dioxide]	4.04	25	0.157
O=C(N1CCS(=O)(=O)CC1)N(Cc1ccc(-c2nnc(C(F)(F)F)o2)cc1)c1ccc(-c2ccc3c(c2)OCO3)cc1 [Compound 21493, N-(4-(benzo[d][1,3]dioxol-5-yl)phenyl)-N-(4-(5-(trifluoromethyl)-1,3,4-oxadiazol-2-yl)benzyl)thiomorpholine-4-carboxamide 1,1-dioxide]	1.74	6	0.313
O=C(N1CCS(=O)(=O)CC1)N(Cc1ccc(-c2nnc(C(F)(F)F)o2)cc1F)c1ccc(-c2cccnc2)cc1 [Compound 21517, N-(2-fluoro-4-(5-(trifluoromethyl)-1,3,4-oxadiazol-2-yl)benzyl)-N-(4-(pyridin-3-yl)phenyl)thiomorpholine-4-carboxamide 1,1-dioxide]	2.92	31	0.093
O=C(N1CCS(=O)(=O)CC1)N(Cc1ccc(-c2nnc(C(F)(F)F)o2)cc1F)c1ccc(-c2ccncc2)cc1 [Compound 21519, N-(2-fluoro-4-(5-(trifluoromethyl)-1,3,4-oxadiazol-2-yl)benzyl)-N-(4-(pyridin-4-yl)phenyl)thiomorpholine-4-carboxamide 1,1-dioxide]	2.65	20	0.131
O=C(N1CCS(=O)(=O)CC1)N(Cc1ccc(-c2nnc(C(F)(F)F)o2)cc1F)c1ccc2c(c1)CCO2 [Compound 21543, N-(2,3-dihydrobenzofuran-5-yl)-N-(2-fluoro-4-(5-(trifluoromethyl)-1,3,4-oxadiazol-2-yl)benzyl)thiomorpholine-4-carboxamide 1,1-dioxide]	4.75	64	0.073
Cn1ncc2ccc(N(Cc3ccc(-c4nnc(C(F)(F)F)o4)cc3F)C(=O)N3CCS(=O)(=O)CC3)cc21 [Compound 21545, N-(2-fluoro-4-(5-(trifluoromethyl)-1,3,4-oxadiazol-2-yl)benzyl)-N-(1-methyl-1H-indazol-6-yl)thiomorpholine-4-carboxamide 1,1-dioxide]	4.44	85	0.052
CCN1CCN(C(=O)N(Cc2ccc(-c3nnc(C(F)(F)F)o3)cc2F)c2ccc(F)c(Cl)c2)CC1 [Compound 21592, N-(3-chloro-4-fluorophenyl)-4-ethyl-N-(2-fluoro-4-(5-(trifluoromethyl)-1,3,4-oxadiazol-2-yl)benzyl)piperazine-1-carboxamide]	8.28	100	0.1
